Test results reported in patent US8173694B2, “Therapeutic agent” (Pentraxin Therapeutics Limited, priority 2001, dated 2012).

Target: T1, CRP in whole human serum (Homo sapiens, UniProt P02741)
T1 construct: Aliquots of a single pool of whole normal human serum, containing SAP and CRP; from tissue; host or cells: pooled whole normal human serum
T1 sequence (P02741 19-224): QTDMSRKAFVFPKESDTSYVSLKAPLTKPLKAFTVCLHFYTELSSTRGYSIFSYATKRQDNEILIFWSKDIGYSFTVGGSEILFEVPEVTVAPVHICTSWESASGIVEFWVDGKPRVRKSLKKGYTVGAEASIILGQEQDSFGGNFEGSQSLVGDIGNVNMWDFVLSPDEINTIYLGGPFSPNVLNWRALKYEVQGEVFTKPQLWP
Experiment: Size exclusion chromatography of whole human serum mixed with drug: CRP
Type: binding
Procedure: Aliquots of a single pool of whole normal human serum, containing SAP and CRP, were mixed with (R)-1-[6-(R)-2-Carboxy-pyrrolidin-1-yl]-6-oxo-hexanoyl]pyrrolidine-2-carboxylic acid at the molar ratios shown, with respect to pentraxin protomer, and analysed by size exclusion chromatography precisely as described previously (14). The mixtures and the column eluants contained either no calcium ions or 2 mM calcium, and the concentrations of drug appropriate to maintain the molar ratios indicated above. SAP in whole serum is a stable soluble pentameric assembly of protomers, stabilised by the presence of the normal high concentration of serum albumin. However as SAP is separated from serum albumin during gel filtration with a calcium containing eluant, the SAP autoaggregates and elutes entirely as high molecular weight polymers in the void volume of the column. This is because, in the absence of a specific ligand to which it can bind, isolated human SAP is insoluble in the presence of calcium (14). However in the absence of calcium, where no ligand binding or autoaggregation can occur, SAP forms stable decamers, providing an excellent marker for the elution volume of this molecular assembly (14). Human CRP is a stable pentamer either in the presence or absence of calcium and thus provides a robust marker for the elution position of that molecular form (14).

[1] = drug:protein 1:1, calcium present
[2] = drug:protein 10:1, calcium present
[3] = drug:protein 100:1, calcium present

O=C(O)[C@H]1CCCN1C(=O)CCCCC(=O)N1CCC[C@@H]1C(=O)O [(R)-1-[6-(R)-2-Carboxy-pyrrolidin-1-yl]-6-oxo-hexanoyl]pyrrolidine-2-carboxylic acid]
Elution volume [1]: 12.0 to 12.5 mL | Molecular assembly [1]: Pentamer | Elution volume [2]: 12.0 to 12.5 mL | Molecular assembly [2]: Pentamer | Elution volume [3]: 12.0 to 12.5 mL | Molecular assembly [3]: Pentamer
